Experimental data published in patent US8022099B2, “N-benzyl pyrrolidine derivatives” (Hoffmann-La Roche Inc., priority 2008, dated 2011).

Columns and labels:
human NK3 receptor = target: T1, human NK3 receptor (Homo sapiens, UniProt P29371); assay: [3H]SR142801 competition binding assay; details: hNK3 receptor binding, [3H]SR142801, membranes from HEK293 cells transiently expressing recombinant human NK3 receptor
T1 construct: expressed in transfected cells; host or cells: HEK293 cells (transient expression), membrane preparation
T1 sequence (P29371 1-465): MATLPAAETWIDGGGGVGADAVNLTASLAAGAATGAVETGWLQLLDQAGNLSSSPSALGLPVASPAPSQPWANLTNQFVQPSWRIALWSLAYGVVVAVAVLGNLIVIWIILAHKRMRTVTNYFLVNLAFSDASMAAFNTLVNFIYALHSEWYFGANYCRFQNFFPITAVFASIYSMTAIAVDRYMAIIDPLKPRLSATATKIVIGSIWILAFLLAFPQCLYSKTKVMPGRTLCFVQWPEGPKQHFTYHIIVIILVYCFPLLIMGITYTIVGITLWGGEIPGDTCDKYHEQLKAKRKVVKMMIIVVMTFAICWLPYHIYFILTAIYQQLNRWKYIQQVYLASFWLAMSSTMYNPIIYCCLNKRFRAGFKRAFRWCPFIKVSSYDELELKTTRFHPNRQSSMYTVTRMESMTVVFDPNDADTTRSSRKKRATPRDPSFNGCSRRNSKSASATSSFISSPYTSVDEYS
In short: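 Membranes from HEK293 cells transiently expressing human NK3 were incubated 75 min at RT with [3H]SR142801 at its KD and inhibitor (0.0003-10 μM) in Tris-HCl pH 7.4/MnCl2/phosphoramidon/BSA. Nonspecific binding used 10 μM SB222200. Ki from Hill-fitted IC50 via Cheng-Prusoff, duplicate determinations.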

[1] = phase II trial, cited from earlier work

| Ki (human NK3 receptor) | Compound | activity on positive symptoms of schizophrenia ([1]; altered behaviour, delusion, hallucinations, extreme emotions, excited motor activity, incoherent speech) | activity in the treatment of negative symptoms of schizophrenia ([1]; depression, anhedonia, social isolation, memory and attention deficits) |
| --- | --- | --- | --- |
| 12 nM | CN(Cc1ccc(C(F)(F)F)c(F)c1)[C@H]1CN(C(=O)CN2CCC(NS(C)(=O)=O)CC2)C[C@@H]1c1ccc(Cl)c(Cl)c1 (racemic) [Example 143, N-[1-(2-{(3SR,4RS)-3-(3,4-Dichloro-phenyl)-4-[(3-fluoro-4-trifluoromethyl-benzyl)-methyl-amino]-pyrrolidin-1-yl}-2-oxo-ethyl)-piperidin-4-yl]-methanesulfonamide] |  |  |
| 5.9 nM | CN(Cc1ccc(C(F)(F)F)c(F)c1)[C@H]1CN(C(=O)CN2CCC(N(C)S(C)(=O)=O)CC2)C[C@@H]1c1ccc(Cl)c(Cl)c1 (racemic) [Example 144, N-[1-(2-{(3SR,4RS)-3-(3,4-Dichloro-phenyl)-4-[(3-fluoro-4-trifluoromethyl-benzyl)-methyl-amino]-pyrrolidin-1-yl}-2-oxo-ethyl)-piperidin-4-yl]-N-methyl-methanesulfonamide] |  |  |
| 13.7 nM | CN(Cc1ccc(C(F)(F)F)c(F)c1)[C@H]1CN(C(=O)CN2CCC(N3CCOCC3=O)CC2)C[C@@H]1c1ccc(Cl)c(Cl)c1 (racemic) [Example 145, 4-[1-(2-{(3SR,4RS)-3-(3,4-Dichloro-phenyl)-4-[(3-fluoro-4-trifluoromethyl-benzyl)-methyl-amino]-pyrrolidin-1-yl}-2-oxo-ethyl)-piperidin-4-yl]-morpholin-3-one] |  |  |
| 14.9 nM | CN(Cc1ccc(C(F)(F)F)c(F)c1)[C@H]1CN(C(=O)CN2CCC(N3CCCCC3=O)CC2)C[C@@H]1c1ccc(Cl)c(Cl)c1 (racemic) [Example 146, 1′-(2-{(3SR,4RS)-3-(3,4-Dichloro-phenyl)-4-[(3-fluoro-4-trifluoromethyl-benzyl)-methyl-amino]-pyrrolidin-1-yl}-2-oxo-ethyl)-[1,4′]bipiperidinyl-2-one] |  |  |
| 13.8 nM | CC(=O)N(C)C1CCN(CC(=O)N2C[C@H](c3ccc(Cl)c(Cl)c3)[C@@H](N(C)Cc3ccc(C(F)(F)F)c(F)c3)C2)CC1 (racemic) [Example 147, N-[1-(2-{(3SR,4RS)-3-(3,4-Dichloro-phenyl)-4-[(3-fluoro-4-trifluoromethyl-benzyl)-methyl-amino]-pyrrolidin-1-yl}-2-oxo-ethyl)-piperidin-4-yl]-N-methyl-acetamide] |  |  |
| 3.1 nM | CN(Cc1ccc(C(F)(F)F)c(F)c1)[C@H]1CN(C(=O)C2CCN(C(=O)C3(C)CC3)CC2)C[C@@H]1c1ccc(Cl)c(Cl)c1 (racemic) [Example 149, {(3SR,4RS)-3-(3,4-Dichloro-phenyl)-4-[(3-fluoro-4-trifluoromethyl-benzyl)-methyl-amino]-pyrrolidin-1-yl}-[1-(1-methyl-cyclopropanecarbonyl)-piperidin-4-yl]-methanone] |  |  |
| 13.4 nM | CN(Cc1ccc(C(F)(F)F)c(F)c1)[C@H]1CN(C(=O)N2CCN(c3ncccc3C#N)CC2)C[C@@H]1c1ccc(Cl)c(Cl)c1 [Example 71, 2-(4-{(3S,4R)-3-(3,4-Dichloro-phenyl)-4-[(3-fluoro-4-trifluoromethyl-benzyl)-methyl-amino]-pyrrolidine-1-carbonyl}-piperazin-1-yl)-nicotinonitrile] |  |  |
| 36.6 nM | COCCCCC(=O)N1C[C@H](c2ccc(Cl)c(Cl)c2)[C@@H](N(C)Cc2ccc(C(F)(F)F)c(F)c2)C1 [Example 99, 1-{(3S,4R)-3-(3,4-Dichloro-phenyl)-4-[(3-fluoro-4-trifluoromethyl-benzyl)-methyl-amino]-pyrrolidin-1-yl}-5-methoxy-pentan-1-one] |  |  |
| 26.7 nM | CN(Cc1ccc(C(F)(F)F)c(F)c1)[C@H]1CN(C(=O)CCN2CCOCC2)C[C@@H]1c1ccc(Cl)c(Cl)c1 [Example 110, 1-{(3S,4R)-3-(3,4-Dichloro-phenyl)-4-[(3-fluoro-4-trifluoromethyl-benzyl)-methyl-amino]-pyrrolidin-1-yl}-3-morpholin-4-yl-propan-1-one] |  |  |
| 43.7 nM | CN(Cc1ccc(C(F)(F)F)c(F)c1)[C@H]1CN(C(=O)CN2CCS(=O)(=O)CC2)C[C@@H]1c1ccc(Cl)c(Cl)c1 [Example 135, 1-{(3S,4R)-3-(3,4-Dichloro-phenyl)-4-[(3-fluoro-4-trifluoromethyl-benzyl)-methyl-amino]-pyrrolidin-1-yl}-2-(1,1-dioxo-λ^6-thiomorpholin-4-yl)-ethanone] |  |  |
|  | CC(=O)N(C)C1(c2ccccc2)CCN(CCC[C@]2(c3ccc(Cl)c(Cl)c3)CCCN(C(=O)c3ccccc3)C2)CC1 [SR 142,801, Osanetant] | active | inactive |
